Tests used:
CPT-1 = target: T1, CPT-1 (Homo sapiens, UniProt P50416); experiment: Carnitine palmitoyltransferase-1 (CPT-1) assay in permeabilized MCF-7 cells; assay type: cell-based; conditions: at 20 ug/ml
T1 construct: This assay uses permeabilized cells to measure the transfer of [methyl-^14C]L-carnitine; endogenous in cells; host or cells: MCF-7 cells, digitonin-permeabilized
T1 sequence (P50416 1-773): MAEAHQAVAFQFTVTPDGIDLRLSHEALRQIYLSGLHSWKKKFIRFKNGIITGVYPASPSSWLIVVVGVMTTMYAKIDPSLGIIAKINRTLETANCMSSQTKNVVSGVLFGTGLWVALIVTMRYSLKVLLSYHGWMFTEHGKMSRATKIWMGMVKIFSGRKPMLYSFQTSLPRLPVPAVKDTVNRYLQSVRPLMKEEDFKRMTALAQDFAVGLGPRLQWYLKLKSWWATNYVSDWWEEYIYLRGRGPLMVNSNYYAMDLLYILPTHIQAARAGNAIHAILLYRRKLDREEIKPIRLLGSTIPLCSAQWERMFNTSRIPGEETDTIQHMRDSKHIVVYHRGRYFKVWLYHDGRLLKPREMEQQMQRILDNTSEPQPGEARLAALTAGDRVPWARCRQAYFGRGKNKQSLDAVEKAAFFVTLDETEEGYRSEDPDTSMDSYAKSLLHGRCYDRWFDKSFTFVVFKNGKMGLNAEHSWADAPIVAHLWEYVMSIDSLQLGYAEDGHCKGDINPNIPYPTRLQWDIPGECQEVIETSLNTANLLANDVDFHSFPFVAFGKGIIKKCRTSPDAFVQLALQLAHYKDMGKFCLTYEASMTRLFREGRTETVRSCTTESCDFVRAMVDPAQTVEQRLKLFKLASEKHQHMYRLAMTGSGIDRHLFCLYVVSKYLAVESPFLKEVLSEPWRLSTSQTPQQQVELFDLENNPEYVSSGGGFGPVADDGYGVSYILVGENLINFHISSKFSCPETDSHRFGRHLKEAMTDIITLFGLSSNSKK
Description: Carnitine Palmitoyltransferase-1 (CPT-1) Assay
CPT-1 catalyzes the ATP dependent transfer of long-chain fatty acids from acyl-CoA to acyl-carnitine that is inhibited by malonyl-CoA. As CPT-1 requires the mitochondrial membrane for activity, enzyme activity is measured in permeabilized cells or mitochondria. This assay uses permeabilized cells to measure the transfer of [methyl-^14C]L-carnitine to the organically soluble acyl-carnitine deriviative.
MCF-7 cells are plated in DMEM with 10% fetal bovine serum at 10^6 cells in 24-well plates in triplicate for controls, drugs, and malonyl-CoA. Two hours before commencing the assay, drugs are added at the indicated concentrations made from stock solutions at 10 mg/ml in DMSO, vehicle controls consist of DMSO without drug. Since malonyl-CoA cannot enter intact cells, it is only added in the assay buffer to cells that have not been preincubated with drugs. Following overnight incubation at 37° C., the medium is removed and replaced with 700 μl of assay buffer consisting of: 50 mM imidazole, 70 mM KCl, 80 mM sucrose, 1 mM EGTA, 2 mM MgCl2, 1 mM DTT, 1 mM KCN, 1 mM ATP, 0.1% fatty acid free bovine serum albumin, 70 μM palmitoyl-CoA, 0.25 μCi [methyl-^14C]L-carnitine, 40 μg digitonin with drug, DMSO vehicle control, or 20 μM malonyl-CoA. […] The butanol phase is counted by liquid scintillation and represents the acylcarnitine derivative.

[1] = test system: Escherichia coli (ATCC #25922); experiment: Broth microdilution MIC, E. coli; assay type: cell-based
Description: A broth microdilution assay is used to assess the antimicrobial activity of the compounds. Compounds are tested at twofold serial dilutions, and the concentration that inhibits visible growth (OD600 at 10% of control) is defined as the MIC. Microorganisms tested include Staphylococcus aureus (ATCC #29213), Enterococcus faecalis (ATCC #29212), Pseudomonas aeruginosa (ATCC #27853), and Escherichia coli (ATCC #25922). The assay is performed in two growth media, Mueller Hinton Broth and Trypticase Soy Broth.
A blood (Tsoy/5% sheep blood) agar plate is inoculated from frozen stocks maintained in T soy broth containing 10% glycerol and incubated overnight at 37° C. Colonies are suspended in sterile broth so that the turbidity matches the turbidity of a 0.5 McFarland standard. The inoculum is diluted 1:10 in sterile broth (Mueller Hinton or Trypticase soy) and 195 ul is dispensed per well of a 96-well plate. […]
After 24 hours of incubation at 37° C., plates are read at OD600 on a Molecular Devices SpectraMax Plus Spectrophotometer. Average OD600 values are computed using SOFTmax Pro Software (Molecular Devices) and MIC values are determined by linear regression analysis using Prism version 3.02 (Graph Pad Software, San Diego). […]

Structure (SMILES): C=CCC1(CC=C)C(=O)SC(C)(CCCCCCCC)C1=O (racemic) [Compound 4, 3,3-Diallyl-5-methyl-5-octyl-thiophene-2,4-dione]
- CPT I Stim (CPT-1): 125% of control
- Ecoli/MH (MIC) ([1]; Mueller Hinton Broth): Neg
- Ecoli/Tsoy ([1]; Trypticase Soy Broth): Neg
